Source: ChEMBL document CHEMBL4196087 (Eur J Med Chem, 2018)

What was measured:
UO-31 [1] = experiment: Cell cycle arrest in human UO31 cells assessed as accumulation at pre-G1 phase at 0.72 uM after 24 hrs by propidium iodide staining based flow cytometry relative to control; assay type: functional
UO-31 [2] = experiment: Antiproliferative activity against human UO31 cells after 48 hrs by SRB assay; assay type: functional; conditions: UO-31, 48 h
A498 = experiment: Growth inhibition of human A498 cells at 10^-5 M incubated for 48 hrs by sulforhodamine B assay relative to control; assay type: functional; conditions: A498, 48 h, read-out: GI
SNB-75 = experiment: Growth inhibition of human SNB75 cells at 10^-5 M incubated for 48 hrs by sulforhodamine B assay relative to control; assay type: functional; conditions: SNB-75, 48 h, read-out: GI
UO-31 [3] = experiment: Potency index, ratio of doxorubicin IC50 to compound IC50 for antiproliferative activity against human UO31 cells; assay type: functional
IGROV-1 [4] = experiment: Antiproliferative activity against human IGROV1 cells after 48 hrs by SRB assay; assay type: functional; conditions: IGROV-1, 48 h, read-out: LC50 (the source's name)
MDA-MB-468 [5] = experiment: Growth inhibition of human MDA-MB-468 cells at 10^-5 M incubated for 48 hrs by sulforhodamine B assay relative to control; assay type: functional; conditions: MDA-MB-468, 48 h, read-out: GI
UO-31 [6] = experiment: Antiproliferative activity against human UO31 cells after 48 hrs by MTT assay; assay type: functional, cell-based; conditions: UO-31, 48 h
UO-31 [7] = experiment: Induction of apoptosis in human UO31 cells assessed as caspase-3 activation by measuring active caspase-3 level at 0.72 uM by […] (reference value: 66 pg/ml); assay type: functional
UO-31 [8] = experiment: Cell cycle arrest in human UO31 cells assessed as accumulation at G1 phase at 0.72 uM after 24 hrs by propidium iodide staining based flow cytometry (reference value: 69.55%); assay type: functional
UO-31 [9] = experiment: Cell cycle arrest in human UO31 cells assessed as apoptotic cells at 0.72 uM after 24 hrs by propidium iodide staining based flow cytometry (reference value: 0.49%); assay type: functional
DNA topoisomerase 2-beta [10] = target: T1, DNA topoisomerase 2-beta (Homo sapiens, UniProt Q02880); experiment: Potency index, ratio of amsacrine IC50 to compound IC50 for inhibition of human topoisomerase-2B
T1 sequence (Q02880 whole entry): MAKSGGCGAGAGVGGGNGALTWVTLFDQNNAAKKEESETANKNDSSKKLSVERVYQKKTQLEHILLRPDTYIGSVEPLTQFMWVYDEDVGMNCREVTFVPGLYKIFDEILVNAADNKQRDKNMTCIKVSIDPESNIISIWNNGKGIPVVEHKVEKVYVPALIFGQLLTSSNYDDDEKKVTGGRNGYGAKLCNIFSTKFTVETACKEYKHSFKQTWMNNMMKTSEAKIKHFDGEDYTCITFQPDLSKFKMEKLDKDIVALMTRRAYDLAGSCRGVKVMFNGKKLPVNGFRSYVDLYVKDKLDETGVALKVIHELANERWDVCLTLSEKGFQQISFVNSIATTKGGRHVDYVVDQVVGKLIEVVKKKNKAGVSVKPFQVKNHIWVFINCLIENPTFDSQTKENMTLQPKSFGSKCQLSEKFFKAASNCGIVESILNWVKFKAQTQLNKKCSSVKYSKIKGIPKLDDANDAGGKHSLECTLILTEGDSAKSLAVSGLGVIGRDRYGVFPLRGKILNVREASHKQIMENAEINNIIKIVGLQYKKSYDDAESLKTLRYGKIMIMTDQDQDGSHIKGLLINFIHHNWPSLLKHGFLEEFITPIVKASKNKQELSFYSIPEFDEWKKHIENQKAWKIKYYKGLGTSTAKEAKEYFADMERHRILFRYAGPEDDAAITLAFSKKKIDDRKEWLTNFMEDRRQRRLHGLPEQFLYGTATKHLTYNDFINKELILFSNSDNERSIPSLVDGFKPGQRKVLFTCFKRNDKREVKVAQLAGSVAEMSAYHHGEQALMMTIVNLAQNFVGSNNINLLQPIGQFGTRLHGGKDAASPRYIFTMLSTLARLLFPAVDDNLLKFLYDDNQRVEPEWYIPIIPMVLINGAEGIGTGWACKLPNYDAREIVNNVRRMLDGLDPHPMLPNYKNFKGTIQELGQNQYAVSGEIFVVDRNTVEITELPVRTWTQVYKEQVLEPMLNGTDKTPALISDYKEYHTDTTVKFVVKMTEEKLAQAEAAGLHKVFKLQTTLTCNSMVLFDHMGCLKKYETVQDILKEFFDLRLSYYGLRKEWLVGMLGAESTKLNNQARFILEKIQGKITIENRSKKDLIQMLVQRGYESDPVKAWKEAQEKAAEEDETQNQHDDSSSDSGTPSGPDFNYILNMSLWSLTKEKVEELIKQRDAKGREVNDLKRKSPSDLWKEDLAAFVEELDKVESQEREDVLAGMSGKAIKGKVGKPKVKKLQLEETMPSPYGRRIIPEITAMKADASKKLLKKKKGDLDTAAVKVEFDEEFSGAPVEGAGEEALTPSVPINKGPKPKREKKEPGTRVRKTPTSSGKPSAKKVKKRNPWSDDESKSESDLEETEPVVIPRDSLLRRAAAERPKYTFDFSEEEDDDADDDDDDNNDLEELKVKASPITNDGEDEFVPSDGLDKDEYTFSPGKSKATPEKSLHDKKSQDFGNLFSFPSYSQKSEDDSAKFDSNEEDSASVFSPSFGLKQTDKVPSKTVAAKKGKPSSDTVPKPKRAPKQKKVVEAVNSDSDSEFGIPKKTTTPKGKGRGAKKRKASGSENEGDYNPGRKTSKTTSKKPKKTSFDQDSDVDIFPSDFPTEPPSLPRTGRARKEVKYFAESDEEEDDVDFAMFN

UO-31 [11] = experiment: Induction of apoptosis in human UO31 cells assessed as necrotic cells at 0.72 uM after 24 hrs by Annexin V-FITC/propidium iodide staining based flow cytometry (reference value: 0.08%); assay type: functional
Bacillus subtilis = experiment: Antibacterial activity against Bacillus subtilis at 37 degC measured after 24 hrs by agar disc diffusion method; assay type: functional
UO-31 [12] = experiment: Growth inhibition of human UO31 cells at 10^-5 M incubated for 48 hrs by sulforhodamine B assay relative to control; assay type: functional; conditions: UO-31, 48 h, read-out: GI
IGROV-1 [13] = experiment: Growth inhibition of human IGROV1 cells at 10^-5 M incubated for 48 hrs by sulforhodamine B assay relative to control; assay type: functional; conditions: IGROV-1, 48 h, read-out: GI
IGROV-1 [14] = experiment: Potency index, ratio of doxorubicin IC50 to compound IC50 for antiproliferative activity against human IGROV1 cells; assay type: functional
HOP-62 = experiment: Growth inhibition of human HOP62 cells at 10^-5 M incubated for 48 hrs by sulforhodamine B assay relative to control; assay type: functional; conditions: HOP-62, 48 h, read-out: GI
NCI-H226 [15] = experiment: Antiproliferative activity against human NCI-H226 cells after 48 hrs by MTT assay; assay type: functional, cell-based; conditions: NCI-H226, 48 h
MDA-MB-231 = experiment: Growth inhibition of human MDA-MB-231 cells at 10^-5 M incubated for 48 hrs by sulforhodamine B assay relative to control; assay type: functional; conditions: MDA-MB-231, 48 h, read-out: GI
Staphylococcus aureus = experiment: Antibacterial activity against Staphylococcus aureus at 37 degC measured after 24 hrs by agar disc diffusion method; assay type: functional
NCI-H226 [16] = experiment: Growth inhibition of human NCI-H226 cells at 10^-5 M incubated for 48 hrs by sulforhodamine B assay relative to control; assay type: functional; conditions: NCI-H226, 48 h, read-out: GI
Escherichia coli = experiment: Antibacterial activity against Escherichia coli at 37 degC measured after 24 hrs by agar disc diffusion method; assay type: functional
HL-60(TB) = experiment: Growth inhibition of human HL-60(TB) cells at 10^-5 M incubated for 48 hrs by sulforhodamine B assay relative to control; assay type: functional; conditions: HL-60, 48 h, read-out: GI
UO-31 [17] = experiment: Cell cycle arrest in human UO31 cells assessed as accumulation at G2 phase at 0.72 uM after 24 hrs by propidium iodide staining based flow cytometry (reference value: 5.49%); assay type: functional
DNA topoisomerase 2-beta [18] = target: T1, DNA topoisomerase 2-beta; experiment: Inhibition of human topoisomerase-2B after 2 hrs by ELISA
SK-MEL-5 = experiment: Growth inhibition of human SK-MEL-5 cells at 10^-5 M incubated for 48 hrs by sulforhodamine B assay relative to control; assay type: functional; conditions: SK-MEL-5, 48 h, read-out: GI
UO-31 [19] = experiment: Cell cycle arrest in human UO31 cells assessed as accumulation at S phase at 0.72 uM after 24 hrs by propidium iodide staining based flow cytometry (reference value: 24.47%); assay type: functional
MCF7 = experiment: Growth inhibition of human MCF7 cells at 10^-5 M incubated for 48 hrs by sulforhodamine B assay relative to control; assay type: functional; conditions: MCF7, 48 h, read-out: GI
NCI-H226 [20] = experiment: Potency index, ratio of doxorubicin IC50 to compound IC50 for antiproliferative activity against human NCI-H226 cells; assay type: functional
UO-31 [21] = experiment: Induction of apoptosis in human UO31 cells assessed as late apoptotic cells at 0.72 uM after 24 hrs by Annexin V-FITC/propidium iodide staining based flow cytometry (reference value: 0.22%); assay type: functional
DNA topoisomerase 2-beta [22] = target: T1, DNA topoisomerase 2-beta; experiment: Potency index, ratio of doxorubicin IC50 to compound IC50 for inhibition of human topoisomerase-2B
RPMI-8226 = experiment: Growth inhibition of human RPMI8226 cells at 10^-5 M incubated for 48 hrs by sulforhodamine B assay relative to control; assay type: functional; conditions: RPMI-8226, 48 h, read-out: GI
SF-539 = experiment: Growth inhibition of human SF539 cells at 10^-5 M incubated for 48 hrs by sulforhodamine B assay relative to control; assay type: functional; conditions: SF-539, 48 h, read-out: GI
LOX IMVI = experiment: Growth inhibition of human LOXIMVI cells at 10^-5 M incubated for 48 hrs by sulforhodamine B assay relative to control; assay type: functional; conditions: read-out: GI
T47D = experiment: Growth inhibition of human T47D cells at 10^-5 M incubated for 48 hrs by sulforhodamine B assay relative to control; assay type: functional; conditions: read-out: GI
UO-31 [23] = experiment: Induction of apoptosis in human UO31 cells assessed as early apoptotic cells at 0.72 uM after 24 hrs by Annexin V-FITC/propidium iodide staining based flow cytometry (reference value: 0.19%); assay type: functional
HOP-92 = experiment: Growth inhibition of human HOP92 cells at 10^-5 M incubated for 48 hrs by sulforhodamine B assay relative to control; assay type: functional; conditions: HOP-92, 48 h, read-out: GI
PC-3 = experiment: Growth inhibition of human PC3 cells at 10^-5 M incubated for 48 hrs by sulforhodamine B assay relative to control; assay type: functional; conditions: PC-3, 48 h, read-out: GI
CCRF-CEM = experiment: Growth inhibition of human CCRF-CEM cells at 10^-5 M incubated for 48 hrs by sulforhodamine B assay relative to control; assay type: functional; conditions: read-out: GI
K562 = experiment: Growth inhibition of human K562 cells at 10^-5 M incubated for 48 hrs by sulforhodamine B assay relative to control; assay type: functional; conditions: K562, 48 h, read-out: GI
MOLT-4 = experiment: Growth inhibition of human MOLT4 cells at 10^-5 M incubated for 48 hrs by sulforhodamine B assay relative to control; assay type: functional; conditions: MOLT-4, 48 h, read-out: GI
UO-31 [24] = experiment: Cell cycle arrest in human UO31 cells assessed as accumulation at G2/M phase at 0.72 uM after 24 hrs by propidium iodide staining based flow cytometry relative to control; assay type: functional
Pseudomonas aeruginosa = experiment: Antibacterial activity against Pseudomonas aeruginosa at 37 degC measured after 24 hrs by agar disc diffusion method; assay type: functional
UO-31 [25] = experiment: Induction of apoptosis in human UO31 cells assessed as live cells at 0.72 uM after 24 hrs by Annexin V-FITC/propidium iodide staining based low cytometry (reference value: 97.84%); assay type: functional
NCI-H226 [26] = experiment: Antiproliferative activity against human NCI-H226 cells after 48 hrs by SRB assay; assay type: functional; conditions: NCI-H226, 48 h, read-out: LC50 (the source's name)
IGROV-1 [27] = experiment: Antiproliferative activity against human IGROV1 cells after 48 hrs by MTT assay; assay type: functional, cell-based; conditions: IGROV-1, 48 h
UO-31 [28] = experiment: Induction of apoptosis in human UO31 cells assessed as caspase-3 activation by measuring active caspase-3 level at 6.44 uM by […] (reference value: 66 pg/ml); assay type: functional
HL-60 = experiment: Antiproliferative activity against human HL60 cells after 48 hrs by MTT assay; assay type: functional, cell-based; conditions: HL-60, 48 h
MDA-MB-468 [29] = experiment: Antiproliferative activity against human MDA-MB-468 cells after 48 hrs by MTT assay; assay type: functional, cell-based; conditions: MDA-MB-468, 48 h

In the case of `O=C(CN1CCN(c2cc3c(cc2F)c(=O)c(C(=O)O)cn3C2CC2)CC1)N/N=C/c1cc2ccccc2[nH]1`, the “fold change (FC)” value (UO-31 [1]) is reported as 8.8, the LC50 (UO-31 [2]) is reported as 15.1 µM and the inhibition of growth at 10 µM (A498) is reported as under 20%. The inhibition of growth at 10 µM (SNB-75) was under 20%, the “Ratio IC50” value (UO-31 [3]) was 1.5 - 9 and the CC50 (IGROV-1 [4]) was 18.8 µM. The inhibition of growth at 10 µM (MDA-MB-468 [5]) was under 20%, the IC50 (UO-31 [6]) was 0.72 µM and the Activity (UO-31 [7]) was 293.6 pg/mL. The Activity (UO-31 [8]) was 62.64%, the Activity (UO-31 [9]) was 4.35% and the Ratio IC50 (DNA topoisomerase 2-beta [10]) was 3. The Activity (UO-31 [11]) was 0.33%, the “diameter of the inhibition zone (DIZ)” value (Bacillus subtilis) was 27 mm and the inhibition of growth at 10 µM (UO-31 [12]) was 34.1%. For the same compound, the inhibition of growth at 10 µM (IGROV-1 [13]) was 43.5%, the “Ratio IC50” value (IGROV-1 [14]) was 5.8 and the inhibition of growth at 10 µM (HOP-62) was 29%. The IC50 (NCI-H226 [15]) was 1.02 µM, the inhibition of growth at 10 µM (MDA-MB-231) was 28.1% and the “diameter of the inhibition zone (DIZ)” value (Staphylococcus aureus) was 25 mm. For the same compound, the inhibition of growth at 10 µM (NCI-H226 [16]) was 34.4%, the “diameter of the inhibition zone (DIZ)” value (Escherichia coli) was 25 mm and the inhibition of growth at 10 µM (HL-60(TB)) was under 20%. It also gave an Activity (UO-31 [17]) of 11.32%, an IC50 (DNA topoisomerase 2-beta [18]) of 0.86 µM and an inhibition of growth at 10 µM (SK-MEL-5) of under 20%. The Activity (UO-31 [19]) was 21.69%, the inhibition of growth at 10 µM (MCF7) was under 20% and the “Ratio IC50” value (NCI-H226 [20]) was 4.9. For the same compound, the Activity (UO-31 [21]) was 1.88%, the Ratio IC50 (DNA topoisomerase 2-beta [22]) was 4 and the inhibition of growth at 10 µM (RPMI-8226) was under 20%. It also gave an inhibition of growth at 10 µM (SF-539) of under 20%, an inhibition of growth at 10 µM (LOX IMVI) of 36.6% and an inhibition of growth at 10 µM (T47D) of 25.5%. It also gave an Activity (UO-31 [23]) of 2.14%, an inhibition of growth at 10 µM (HOP-92) of 29.8% and an inhibition of growth at 10 µM (PC-3) of 20.3%. For the same compound, the inhibition of growth at 10 µM (CCRF-CEM) was under 20%, the inhibition of growth at 10 µM (K562) was under 20% and the inhibition of growth at 10 µM (MOLT-4) was under 20%. The “fold change (FC)” value (UO-31 [24]) was 2.06, the “diameter of the inhibition zone (DIZ)” value (Pseudomonas aeruginosa) was 27 mm and the Activity (UO-31 [25]) was 93.84%. For the same compound, the CC50 (NCI-H226 [26]) was 15.4 µM and the IC50 (IGROV-1 [27]) was 0.75 µM.

`COc1cccc2c1C(=O)c1c(O)c3c(c(O)c1C2=O)C[C@@](O)(C(=O)CO)C[C@@H]3O[C@H]1C[C@H](N)[C@H](O)[C@H](C)O1` [DOXORUBICIN] gave an IC50 (UO-31 [6]) of 6.44 µM, an Activity (UO-31 [28]) of 375.6 pg/mL and an IC50 (NCI-H226 [15]) of 5.07 µM. For the same compound, the IC50 (HL-60) was 8.91 µM, the IC50 (MDA-MB-468 [29]) was 2.81 µM and the IC50 (IGROV-1 [27]) was 4.36 µM.
